{"source": "paper PMC8732328", "about": "(Nature microbiology, 2021)", "data": [{"tested_on": "all eight Enterococcus or Streptococcus strains", "assay": "MIC against eight Enterococcus or Streptococcus strains", "type": "cell-based, Enterococcus and Streptococcus spp.", "values": [{"compound": "CN[C@H](CC(C)C)C(=O)N[C@H]1C(=O)N[C@@H](CC(N)=O)C(=O)N[C@H]2C(=O)N[C@H]3C(=O)N[C@H](C(=O)N[C@H](C(=O)O)c4cc(O)cc(O)c4-c4cc3ccc4O)[C@H](O)c3ccc(c(Cl)c3)Oc3cc2cc(c3O[C@@H]2O[C@H](CO)[C@@H](O)[C@H](O)[C@H]2O[C@H]2C[C@](C)(N)[C@H](O)[C@H](C)O2)Oc2ccc(cc2Cl)[C@H]1O", "note": "[Van, vancomycin]", "activity against all eight Enterococcus or Streptococcus strains": "active"}, {"compound": "lysobactin", "activity against all eight Enterococcus or Streptococcus strains": "active"}, {"compound": "nisin", "activity against all eight Enterococcus or Streptococcus strains": "active"}, {"compound": "ramoplanin", "activity against all eight Enterococcus or Streptococcus strains": "active"}]}]}
